According to patent US9649333B2, “Oxygenation procedures for newborns and devices for use therein” (UTI Limited Partnership, priority 2008, dated 2017):
Where two headings read alike, the source gives them in different places.

Test system: preterm infants
Settings: for time immediately after birth to reach the target range: FIG. 3
Description: Blinded, randomized control trial of delivery room resuscitation in infants 32 weeks gestation comparing three O2 strategies. The High O2 Burden (HOB) group received a static concentration of 100% O2. In the Moderate O2 Burden (MOB) and Low O2 Burden (LOB) groups, resuscitation started with 100% and 21% O2, respectively. The inspired oxygen concentration was adjusted by 20% every 15 seconds in the MOB and LOB groups until the target SpO2 range of 85% to 92% was reached. SpO2 measurements were recorded every 2 seconds from the right wrist (pre-ductal) and the maximum sensitivity setting of the pulse oximetry was used. An anesthesia monitor continuously measured and recorded respiratory parameters including the peak inspiratory pressure, respiratory rate, end-tidal CO2 and inspired O2 concentration.
There were three sets of preterm infants that were part of this study. The LOB (low oxygen burden group—resuscitation began with room air given followed by a 20% increase every 15 sec as long as the oxygen saturation was less than 85%), MOB ([…] began with 100% oxygen given and decreased 20% every 15 sec as long as the oxygen saturation was greater than 92%) and HOB (high oxygen burden group—100% oxygen given continuously). The inventors enrolled 106 preterm infants (≦32 weeks gestation) (LOB=34, MOB=[…]).

[1] = HOB group: static 100% O2, target SpO2 85-92%
[2] = LOB group: start 21% O2, titrated
[3] = LOB group: start 21% O2, titrated, target SpO2 85-92%
[4] = MOB group: start 100% O2, titrated
[5] = MOB group: start 100% O2, titrated, target SpO2 85-92%

With `O=O` [oxygen] the “Mean duration of resuscitation” value (HOB group: static 100% O2) was 590.62 s, the “mean proportion of resuscitation time spent in the target SpO2 range (85-92%)” value (“mean proportion … (85-92%)” for short) (HOB group: static 100% O2) was 11% and the “Mean proportion of time above target” value [1] was 0.49. For the same compound, the “Mean proportion of time below target” value [1] was 0.40, the “proportion of time above range” value [1] was 49% and the “time immediately after birth to reach the target range” value (HOB group, target SpO2 85-92%) was “approximately 5 minutes”. For the same compound, the “Mean proportion of time in target” value (High O2 Burden (HOB) group: static 100% O2, target SpO2 85-92%) was 0.11, the “Mean duration of resuscitation” value [2] was 677.00 s and the “mean proportion … (85-92%)” value [2] was 16%. The “Mean proportion of time above target” value [3] was 0.23, the “Mean proportion of time below target” value [3] was 0.61 and the “proportion of time below range” value [3] was 61%. The “Mean proportion of time in target” value (Low O2 Burden (LOB) group: start 21% O2, adjusted by 20% every 15 seconds, target SpO2 85-92%) was 0.16, the “more time in target range than the LOB group” value (MOB group versus LOB group, target SpO2 85-92%) was “approximately 25%” and the “Mean duration of resuscitation” value [4] was 665.00 s. The “mean proportion … (85-92%)” value [4] was 21%, the “Mean proportion of time above target” value [5] was 0.28 and the “Mean proportion of time below target” value [5] was 0.51. The “time immediately after birth to reach the target range” value (MOB group, target SpO2 85-92%) was “approximately 5 minutes” and the “Mean proportion of time in target” value (Moderate O2 Burden (MOB) group: start 100% O2, adjusted by 20% every 15 seconds, target SpO2 85-92%) was 0.21.
